Assay results as given in patent publication US6833372B2, “Non-peptide GnRH agents, Pharmaceutical compositions, and methods for their use” (Pfizer, Inc., priority 2002, dated 2004).
Where two headings read alike, the source gives them in different places.

How the values were obtained:
[1] = target: T1, rat GnRH receptor (Rattus norvegicus, UniProt P30969); assay: Radioligand binding: inhibition of 125I-GnRH-A binding to rat GnRH receptor (rat pituitary membranes); conditions: read-out: Ki (nM), Inhibition Binding of 125I-GnRH-A to GnRH Receptors
T1 construct: or rat pituitaries (Pel Freez Biologicals, Rogers, Ark.) were homogenized; tissue Pel Freez Biologicals; host or cells: rat pituitaries (membrane preparation)
T1 sequence (P30969 1-327): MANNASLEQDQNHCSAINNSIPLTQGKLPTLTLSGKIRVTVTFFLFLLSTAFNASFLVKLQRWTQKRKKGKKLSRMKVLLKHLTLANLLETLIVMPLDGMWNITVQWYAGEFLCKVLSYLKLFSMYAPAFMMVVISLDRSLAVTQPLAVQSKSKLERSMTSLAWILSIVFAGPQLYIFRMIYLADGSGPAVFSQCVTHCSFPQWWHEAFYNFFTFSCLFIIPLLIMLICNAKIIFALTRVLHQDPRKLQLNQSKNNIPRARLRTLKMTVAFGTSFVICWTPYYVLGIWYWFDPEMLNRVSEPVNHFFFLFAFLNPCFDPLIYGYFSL
Method in brief: (§1)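 Membranes from rat pituitaries, or HEK 293 cells stably expressing mouse or human receptor, incubated 1 hour at room temperature with ~0.04-0.06 nM radioligand (HEPES pH 7.4, EDTA, MgCl2, BSA) and competitor at 0.1-10,000 nM. Bound ligand collected by GF/C filtration and counted; Ki derived from IC50 by Cheng-Prusoff.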

[2] = Pharmacokinetics in rats (jugular vein cannula, plasma LC-MS); assay type: in vivo, Rat; conditions: for Cmax / half-life / Tmax: rat, plasma, po
Protocol: Rats (male or female, 200-225 g) were prepared with indwelling jugular vein cannula as described by Harms et al., Applied Physiol. 36:391-398 (1974), and allowed to recover overnight with free access to the standard vivarium chow and water. […] […] The blood samples were withdrawn at specific times, plasma was immediately separated and compound extracted with ethyl acetate. The samples were analyzed by LC-MS using 30-90% gradient of ACN in 50 mM ammonium acetate.
The pharmacokinetic parameters were calculated using WinNonlin software (Scientific Consulting Inc.). The bioavailability was calculated as AUCp.o./AUCi.v., where AUCp.o. and AUC i.v. are areas under the plasma concentration-time curve after oral and i.v. administration, respectively.

[3] = target: T2, human GnRH receptors (Homo sapiens, UniProt P30968); assay: Radioligand binding: inhibition of 125I-GnRH-A binding to human GnRH receptor membranes; conditions: HEK 293 cell membranes
T2 construct: expressed in transfected cells; host or cells: HEK 293 cells, stably transfected; membranes
T2 sequence (P30968 1-328): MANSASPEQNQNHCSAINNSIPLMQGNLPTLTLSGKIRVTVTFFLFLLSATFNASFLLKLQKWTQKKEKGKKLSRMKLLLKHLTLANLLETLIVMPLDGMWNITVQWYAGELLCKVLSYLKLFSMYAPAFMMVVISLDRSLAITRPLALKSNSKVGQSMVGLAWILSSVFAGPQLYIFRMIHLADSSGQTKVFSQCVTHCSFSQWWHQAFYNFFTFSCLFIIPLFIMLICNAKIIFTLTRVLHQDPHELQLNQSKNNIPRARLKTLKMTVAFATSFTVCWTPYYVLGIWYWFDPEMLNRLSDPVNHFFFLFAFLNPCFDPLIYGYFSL
Method in brief: as §1

[4] = female rat, 10 mg/kg as 5 mg/ml solution in 10% DMSO, 10% cremophor, 80% saline (footnote 5)
[5] = female, 10 mg/kg, female rat, 10 mg/kg as 5 mg/ml solution in 10% DMSO, 10% cremophor, 80% saline (footnote 5), read-out: FR Cmax
[6] = female, 10 mg/kg, female rat, 10 mg/kg as 5 mg/ml solution in 10% DMSO, 10% cremophor, 80% saline (footnote 5), read-out: FR T1/2 hr (converted)
[7] = female, 10 mg/kg, female rat, 10 mg/kg as 5 mg/ml solution in 10% DMSO, 10% cremophor, 80% saline (footnote 5), read-out: FR Tmax hr

| Ki [1] | FR Fp.o. [2, 4] | Cmax [2, 5] | half-life [2, 6] | Tmax [2, 7] | Ki [3] | Structure (SMILES) | also measured |
| --- | --- | --- | --- | --- | --- | --- | --- |
| 0.7 nM | 56%^5 | 800 nM | 120 min | 2 h | 0.55 nM | COc1nc(OC)c(NC(=O)c2ccc(Cc3cc4c(cc3C)C(C)(C)CCC4(C)C)o2)c(OC)n1 [Example C1, 5-(3,5,5,8,8-Pentamethyl-5,6,7,8-tetrahydro-naphthalen-2-ylmethyl)-furan-2-carboxylic Acid (2,4,6-trimethoxy-pyrimidin-5-yl)-amide] | – |
| 5.4 nM | 60%^5 | 4000 nM | 132 min | 1 h | 7.7 nM | COc1nc(OCCO)nc(OC)c1NC(=O)c1ccc(Cc2cc3c(cc2C)C(C)(C)OC3(C)C)o1 [Example A3, 5-(1,1,3,3,6-Pentamethyl-1,3-dihydro-isobenzofuran-5-ylmethyl)-furan-2-carboxylic acid [2-(2-hydroxy-ethoxy)-4,6-dimethoxy-pyrimidin-5-yl]-amide] | Cmax ([2]; male, 20 mg/kg, male rat, 20 mg/kg as 10 mg/ml in Labrasol/H2O 1/1 (footnote 2), read-out: MR Cmax): 3200 nM; Tmax ([2]; male, 20 mg/kg, male rat, 20 mg/kg as 10 mg/ml in Labrasol/H2O 1/1 (footnote 2), read-out: MR Tmax hr): 1 h; Cmax ([2]; male, 50 mg/kg, male rat, 50 mg/kg in 50 mg/ml PG (footnote 2), read-out: Cmax): 3700 nM; Tmax ([2]; male, 50 mg/kg, male rat, 50 mg/kg in 50 mg/ml PG (footnote 2), read-out: Tmax): 0.5 h |
| 3.8 nM | – | – | – | – | 4.6 nM | COc1nc(OC)c(NC(=O)c2ccc(Cc3cc4c(cc3C)C(C)(C)OC4(C)C)o2)c(OC)n1 [Example A1, 5-(1,1,3,3,6-Pentamethyl-1,3-dihydro-isobenzofuran-5-ylmethyl)-furan-2-carboxylic Acid (2,4,6-trimethoxy-pyrimidin-5-yl)-amide] | FR Fp.o. ([2]; female rat, 10 mg/kg as 5 mg/ml solution in 10% DMSO 20% Labrasol, 70% saline (footnote 4)): 37%^4; Cmax ([2]; female, 10 mg/kg, female rat, 10 mg/kg as 5 mg/ml solution in 10% DMSO 20% Labrasol, 70% saline (footnote 4), read-out: FR Cmax): 1400 nM; half-life ([2]; female, 10 mg/kg, female rat, 10 mg/kg as 5 mg/ml solution in 10% DMSO 20% Labrasol, 70% saline (footnote 4), read-out: FR T1/2 hr (converted)): 306 min; Tmax ([2]; female, 10 mg/kg, female rat, 10 mg/kg as 5 mg/ml solution in 10% DMSO 20% Labrasol, 70% saline (footnote 4), read-out: FR Tmax hr): 1 h; MR Fp.o. ([2]; male rat, 10 mg/kg as 5 mg/ml solution in 10% DMSO, 20% Labrasol, 70% saline (footnote 1)): 6%^1; Cmax ([2]; male, 10 mg/kg, male rat, 10 mg/kg as 5 mg/ml solution in 10% DMSO, 20% Labrasol, 70% saline (footnote 1), read-out: MR Cmax): 100 nM; half-life ([2]; male, 10 mg/kg, male rat, 10 mg/kg as 5 mg/ml solution in 10% DMSO, 20% Labrasol, 70% saline (footnote 1), read-out: MR T1/2 hr (converted)): 90 min; Tmax ([2]; male, 10 mg/kg, male rat, 10 mg/kg as 5 mg/ml solution in 10% DMSO, 20% Labrasol, 70% saline (footnote 1), read-out: MR Tmax hr): 1 h |
| 11 nM | – | – | – | – | 1.8 nM | COc1nc(N(C)C)nc(OC)c1NC(=O)c1ccc(Cc2cc3c(cc2C)C(C)(C)CCC3(C)C)o1 [Example B2, 5-(3,5,5,8,8-Pentamethyl-5,6,7,8-tetrahydro-naphthalen-2-ylmethyl)-furan-2-carboxylic Acid (dimethylamino-dimethoxy-pyrimidin-5-yl)-amide] | FR Fp.o. ([2]; female rat, 6 mg/kg as 3 mg/ml solution in 6% DMSO, 6% cremophor, 88% saline (footnote 6)): 10%^6; Cmax ([2]; female, 6 mg/kg, female rat, 6 mg/kg as 3 mg/ml solution in 6% DMSO, 6% cremophor, 88% saline (footnote 6), read-out: FR Cmax): 900 nM; half-life ([2]; female, 6 mg/kg, female rat, 6 mg/kg as 3 mg/ml solution in 6% DMSO, 6% cremophor, 88% saline (footnote 6), read-out: FR T1/2 hr (converted)): 342 min; Tmax ([2]; female, 6 mg/kg, female rat, 6 mg/kg as 3 mg/ml solution in 6% DMSO, 6% cremophor, 88% saline (footnote 6), read-out: FR Tmax hr): 1 h |
